Test results published in patent US5866571A, “9-substituted 2-(2-n-alkoxyphenyl)-purin-6-ones” (Bayer Aktiengesellschaft, priority 1995, dated 1999).

Legend:
Type in all cases: biochemical
[1] = system: PDE V (cGMP-specific PDE V); test: Inhibition of the phosphodiesterases in vitro: PDE V; conditions: enzyme from porcine small intestine, porcine aorta and/or human blood platelets; 10^-6 mol/l nucleotide, pH 7.5, 30 minutes
Experimental: (§1) Activity of the phosphodiesterases (PDE's)
(§2) The cGMP-stimulatable PDE II, the cGMP-inhibitable PDE III and the cAMP-specific PDE IV were isolated from either the porcine or the bovine myocardium. The Ca-calmodulin-stimulatable PDE I was isolated from porcine aorta or porcine brain. The cGMP-specific PDE V was obtained from porcine small intestine, porcine aorta and/or human blood platelets. Purification was carried out by anion exchange chromatography on MonoQ^R Pharmacia essentially by the method of M. Hoey and Miles D. Houslay, Biochemical Pharmacology, Volume 40, 193-202 (1990).
(§3) The enzyme activity is determined in a test batch of 100 μl in 20 mM Tris/HCl buffer of pH 7.5 which contains 5 mM MgCl2, 0.1 mg/ml of bovine serum albumin and either 800 Bq of ^3 HcAMP or ^3 HcGMP. The final concentration of the corresponding nucleotides is 10^-6 mol/l. The reaction is started by addition of the enzyme and the amount of enzyme is chosen such that about 50% of the substrate is reacted during the incubation time of 30 minutes. In order to test the cGMP-stimulatable PDE II, ^3 HcAMP is used as the substrate and 10^-6 mol/l of non-labelled cGMP is added to the batch. In order to test the Ca-calmodulin-dependent PDE I, 1 μM CaCl2 and 0.1 μM calmodulin are also added to the reaction batch. The reaction is stopped by addition of 100 μl of acetonitrile which contains 1 mM cAMP and 1 mM AMP. 100 μl of the reaction batch are separated on the […] and the cleavage products are determined quantitatively "on line" with a flow-through scintillation counter. The substance concentration at which the rate of reaction is reduced by 50% is measured.
(§4) Inhibition of the phosphodiesterases in vitro

[2] = system: PDE II (cGMP-stimulatable PDE II); test: Inhibition of the phosphodiesterases in vitro: PDE II; conditions: enzyme from porcine or bovine myocardium; ^3HcAMP substrate plus 10^-6 mol/l non-labelled cGMP, pH 7.5, 30 minutes
Experimental: as §1, §2, §3, §4

[3] = system: PDE I (Ca-calmodulin-stimulatable PDE I); test: Inhibition of the phosphodiesterases in vitro: PDE I; conditions: enzyme from porcine aorta or porcine brain; 1 μM CaCl2, 0.1 μM calmodulin; 10^-6 mol/l nucleotide, pH 7.5, 30 minutes
Experimental: as §1, §2, §3, §4

Row | SMILES | IC50 [1] | IC50 [2] | IC50 [3]
1 | CCCOc1ccccc1-c1nc2c(ncn2C(CCc2ccccc2)C(C)O)c(=O)[nH]1 (stereo not drawn) [Example 4, 9-(2-hydroxy-5-phenyl-3-methyl)-2-(2-n-propoxyphenyl)-purin-6-one] | 5 µM | 1 µM | 2 µM
2 | CCCCCCC(C(C)O)n1cnc2c(=O)[nH]c(-c3ccccc3OCCC)nc21 (stereo not drawn) [Example 3, 9-(2-hydroxy-3-nonyl)-2-(2-n-propoxyphenyl)-purin-6-one] | 0.1 µM | 6 µM | 50 µM
3 | CCCOc1ccccc1-c1nc2c(ncn2C(CCCc2ccccc2)C(C)O)c(=O)[nH]1 (stereo not drawn) [Example 5, 9-(2-hydroxy-6-phenyl-3-hexyl)-2-(2-n-propoxyphenyl)-purin-6-one] | 2 µM | 0.5 µM | 1 µM
4 | CCCOc1ccccc1-c1nc2c(ncn2C(C)CCCc2ccccc2)c(=O)[nH]1 (stereo not drawn) [Example 11] | 0.5 µM | 0.3 µM | 0.5 µM

Further lines, results first:

Row | IC50 [1] | IC50 [2] | IC50 [3] | SMILES
5 | 1 µM | 2 µM | 2 µM | CCCCCCC(C(C)NC(C)=O)n1cnc2c(=O)[nH]c(-c3ccccc3OCCC)nc21 (stereo not drawn) [Example 37, 9-(2-Acetamido-3-nonyl)-2-(2-n-propoxyphenyl)-purin-6-one]
6 | 0.1 µM | 0.3 µM | 0.3 µM | CCCCCCC(CC)n1cnc2c(=O)[nH]c(-c3cc(S(=O)(=O)N4CCOCC4)ccc3OCCC)nc21 (stereo not drawn) [Example 57]
